Assay results reported in US6632805B1, “Methods for using water-stabilized organosilanes” (Emory University, priority 1996, dated 2003).

Experiments:
[1] = Stability in water judged by appearance of the preparation (clear/hazy)
[2] = Solubility in water and other solvents

CCCCCCCCCCCCCCCCCC[N+](C)(C)CCC[Si](OC)(OC)OC.[Cl-] [none]
Stability (appearance of the preparation) ([1]; initial pH 1.15, after 1 wk.): hazy
Stability (appearance of the preparation) ([1]; initial pH 2.0, after 1 mo.): hazy
Stability (appearance of the preparation) ([1]; initial pH 2.0, after 1 wk.): clear
Stability (appearance of the preparation) ([1]; initial pH 5.7, after 1 mo.): hazy
Stability (appearance of the preparation) ([1]; initial pH 5.7, after 1 wk.): clear
Stability (appearance of the preparation) ([1]; initial pH 6.5, after 1 mo.): hazy
Stability (appearance of the preparation) ([1]; initial pH 6.5, after 1 wk.): clear
Stability (appearance of the preparation) ([1]; initial pH 8.5, after 1 wk.): hazy/gel

CO[Si](CCCCl)(OC)OC [Chloropropyl trimethoxysilane]
Appearance after addition to water containing pentaerythritol ([2]; water containing pentaerythritol, after standing overnight): clear solution
Solubility in water ([2]; water, no stabilizer): insoluble
